Laboratory results published in patent US5849753A, “Pyridyl imidazole derivatives and processes for the preparation thereof” (Korea Research Institute of Chemical Technology, priority 1994, dated 1998).

Key:
angiotensin II receptor = assay: Angiotensin II Receptor Binding Assay ([3H] angiotensin II binding inhibition); details: [3H] angiotensin II ligand; 60 minutes, 25° C.; test concentration not given
Procedure: In accordance with the procedure disclosed in Chiu, A. T. et al., Eur. J. Pharm., 157, 13(1981), a ligand marked with a radioisotope was reacted with an angiotensin II receptor and the reactant was filtered with a glass fiber to remove unreacted ligand. After washing the filter, the amount of the remaining isotope was measured to determine the binding activity of the ligand, as described below in detail.
Sprague-Dawley rats and Wistar rats of 250 to 350 g(from The Korea Research Institute of Chemical Technology) were tested and the test procedures were carried out at 4° C., unless otherwise specified. Adrenal gland was separated from the Sprague-Dawley rats(liver, in the case of Wistar rats) into cortex and medulla. The separated adrenal cortex and medulla were washed with a sucrose buffer solution (0.2M sucrose, 1 mM EDTA, 10 mM Tris, pH 7.2) and homogenized in the same buffer solution by using a Teflon pestle and a Brinkmann homogenizer. The homogenates were centrifuged at 3,000 Xg for 10 minutes to remove precipitates and further centrifuged at 12,000 Xg for 13 minutes. The final supernatants were centrifuged at 102,000 Xg for 1 hour to obtain precipitates, which were washed with a Tris buffer solution(50 mM Tris, 5 mM MgCl2, pH 7.2) and re-centrifuged at 102,000 Xg for 1 hour. The resulting precipitates were immediately processed at the following step or stored at -70° C.
The precipitates were suspended in a Tris buffer solution. The amount of protein was determined by using a Bio-Rad DC protein analyzing kit and the protein concentration was adjusted to the amounts of: 0.2 to 0.3 mg/ml(Sprague-Dawley rat: adrenal cortex), 1.5 to 2.0 mg/ml(Sprague-Dawleyrat: adrenal medulla), and 1.5 to 2.0 mg/ml(Wistar rat: liver). To the suspension, bovine serum albumin(BSA) was added to a concentration of 0.25 wt % and the resultant was immediately processed at the following step or stored at -70° C.
(ii) Measurement of angiotensin II receptor binding capacity 50 μl(based on ligand) of [^3 H] angiotensin II(NEN, NET-446) and 10 μl of each of the test compounds with various concentrations were added to the buffer solution(50 mM Irris(pH 7.2), 5 mM MgCl2, 0.25% BSA) to adjust the final volume to be 0.5 ml. 100 μl of the receptor suspension was added thereto and the resulting solution was reacted for 60 minutes while stirring in a water bath at 25° C. 3 ml of cold buffer solution for analysis was added to cease the reaction. The isotope which was bound to the receptor was isolated from the resultant by using Brandel Cell Harvester System with Whatman glass fiber GF/C. After washing the filter, the radioactivity of the filter was determined by using a liquid scintillation counter. Binding inhibition(%) of the test compound was calculated as follows:
Binding Inhibition(%)=[{(T--B)-(S--B)}/(T--B)]×100
wherein T is cpm of the reaction product untreated with the test compound, S is cpm of the reaction product treated with the test compound, and B is cpm of blank test.

renal hypertensive rat = assay: Blood pressure lowering effect in renal hypertension (renal hypertensive rats, intravenous or oral); assay type: in vivo, male Sprague-Dawley rats; details: 3 mg, read-out: Maxium Blood Pressure Lowering Effect(%)
Description: To induce renal hypertension, left renal artery of 4 week-old male Sprague-Dawley rats(from The Korea Research Institute of Chemical Technology) was ligated. The rats were anesthetized with ether and the surgical region on the left abdomen of the rat was shaved, disinfected, and then incised about 1 cm vertically. The renal artery near abdominal aorta was isolated carefully from surrounding tissues and veins, and then ligated completely with a suture(4/0 sterile surgical silk). The muscular strata and skin of the surgical area were sutured with a suture(4/0 sterile surgical silk). The surgical region was disinfected to prevent infection and thereafter, 200 to 250 mg/Kg/day of cephazolin sodium was injected intramuscularly for 2 days. 6 to 8 days after the ligation, rats showing systolic pressure of more than 180 mmHg were selected for renal hypertension test. The blood pressure was determined by a tail-cuff method from the tail under unanesthetized condition(Gerold, M. et al., Arzneimittrel-Forsch, 18, 1285(1968)).
Each of the compounds to be tested was administered intravenously or orally into the renal hypertensive rat. The blood pressure of the rats was determined by direct method(Chiu, A. T. et al., J. Pharmacol. Exp. Ther. 250, 867(1989)) using a catheter. The rats were anesthetized with ketamine hydrochloride(125 mg/kg, i.p.) and a catheter was filled with saline and inserted into a carotid artery and carotid vein. The surgical area was sutured with a metal clip. The rats were relaxed at least 3 hours and the catheter in the carotid artery was adapted to an isotec pressure transducer to determine their blood pressure and heart rate with a physiograph(Linearcorder WR3310). After the blood pressure was stabilized, the test compound was administered intravenously or orally. For intravenous administration, the administered volume and washing volume were 1.0 ml/Kg and 0.2 ml, respectively. The blood pressure and heart rate were measured in regular intervals up to 24 hours after the administration of the test compound and compared with those measured after the administration of the control compound Losartan.
The test compound was dissolved in 0.05N KOH for intravenous administration and suspended in Tween 80 for oral administration.

SMILES	Binding Inhibition(%) (angiotensin II receptor)	change in vivo at 3 mg (renal hypertensive rat) [%]
CCCCc1nc2c(C)cc(C(OC)OC)nc2n1Cc1ccc(-c2ccccc2-c2nnn[nH]2)cc1 [Example 11, 2-butyl-5-dimethoxymethyl-7-methyl-3-[2'-(1H-tetrazol-5-yl)-biphenyl-4-ylmethyl]-3H-imidazo[4,5-b]pyridine]	52.5	
CCCCc1nc2cc(-c3ccccc3)c(C3SCCS3)nc2n1Cc1ccc(-c2ccccc2-c2nnn[nH]2)cc1 [Example 5, 2-butyl-5-(1,3-dithiolan-2-yl)-6-phenyl-3-[2'-(1H-tetrazol-5-yl)-biphenyl-4-ylmethyl]-3H-imidazo[4,5-b]pyridine]	54.1	
CCCCc1nc2cc(-c3ccc[n+]([O-])c3)c(C(OC)OC)nc2n1Cc1ccc(-c2ccccc2-c2nn[nH]n2)cc1 [Example 24, 2-butyl-5-dimethoxymethyl-6-(1-oxy-pyridin-3-yl)-3-[2'-(1H-tetrazol-5-yl)-biphenyl-4-ylmethyl]-3H-imidazo[4,5-b]pyridine]	94.9	-18
CCCCc1nc2cc(-c3ccccc3OC)c(C(OC)OC)nc2n1Cc1ccc(-c2ccccc2-c2nn[nH]n2)cc1 [Example 20, 2-butyl-5-dimethoxymethyl-6-(2-methoxyphenyl-1-yl)-3-[2'-(1H-tetrazol-5-yl)-biphenyl-4-ylmethyl]-3H-imidazo[4,5-b]pyridine]	81.9	-25
CCCCc1nc2cc(CCc3ccccc3)c(C(OC)OC)nc2n1Cc1ccc(-c2ccccc2-c2nn[nH]n2)cc1 [Example 15, 2-butyl-5-dimethoxymethyl-6-(2-phenylethyl-1-yl)-3-[2'-(1H-tetrazol-5-yl)-biphenyl-4-ylmethyl]-3H-imidazo[4,5-b]pyridine]	82.0	-36
CCCCc1nc2cc(-c3ccc(COCc4ccccc4)cc3)c(C(OC)OC)nc2n1Cc1ccc(-c2ccccc2-c2nn[nH]n2)cc1 [Example 17, 2-butyl-5-dimethoxymethyl-6-[4-(benzyloxymethyl)-phenyl-1-yl]-3-[2'-(1H-tetrazol-5-yl)-biphenyl-4-ylmethyl]-3H-imidazo[4,5-b]pyridine]	82.0	
CCCCc1nc2cc(Cc3ccccc3)c(C(OC)OC)nc2n1Cc1ccc(-c2ccccc2-c2nnn[nH]2)cc1 [Example 27, 2-butyl-5-dimethoxymethyl-6-benzyl-3-[2'-(1H-tetrazol-5-yl)-biphenyl-4-ylmethyl]-3H-imidazo[4,5-b]pyridine]	87.8	
CCCCc1nc2cc(-c3ccccc3)c(C3OCCCO3)nc2n1Cc1ccc(-c2ccccc2-c2nn[nH]n2)cc1 [Example 4, 2-butyl-5-(1,3-dioxan-2-yl)-6-phenyl-3-[2'-(1-tetrazol-5-yl)-biphenyl-4-ylmethyl]-3H-imidazo[4,5-b]pyridine]	60.9	-33
CCCCc1nc2cc(CCC(=O)OCC)c(C(OC)OC)nc2n1Cc1ccc(-c2ccccc2-c2nn[nH]n2)cc1 [Example 13, 2-butyl-5-dimethoxymethyl-6-[2-(ethoxycarbonyl)-ethyl-1-yl]-3-[2'-(1H-tetrazol-5-yl)-biphenyl-4-ylmethyl]-3H-imidazo[4,5-b]pyridine]	95.0	-32
CCCCc1nc2cc(-c3ccncc3)c(C(OC)OC)nc2n1Cc1ccc(-c2ccccc2-c2nnn[nH]2)cc1 [Example 23, 2-butyl-5-dimethoxymethyl-6-(pyridin-4-yl)-3-[2'-(1H-tetrazol-5-yl)-biphenyl-4-ylmethyl]-3H-imidazo[4,5-b]pyridine]	92.9	-33
CCCCc1nc2cc(-c3ccc(CO)cc3)c(C(OC)OC)nc2n1Cc1ccc(-c2ccccc2-c2nn[nH]n2)cc1 [Example 18, 2-butyl-5-dimethoxymethyl-6-(4-hydroxymethylphenyl-1-yl)-3-[2'-(1H-tetrazol-5-yl)-biphenyl-4-ylmethyl]-3H-imidazo[4,5-b]pyridine]	89.4	-33
CCCCc1nc2cc(-c3ccccc3)c(C(OCC)OCC)nc2n1Cc1ccc(-c2ccccc2-c2nnn[nH]2)cc1 [Example 2, 2-butyl-5-diethoxymethyl-6-phenyl-3-[2'-(1H-tetrazol-5-yl)-biphenyl-4-ylmethyl]-3H-imidazo[4,5-b]pyridine]		-45
CCCCc1nc2cc(-c3ccc(F)cc3)c(C(OC)OC)nc2n1Cc1ccc(-c2ccccc2-c2nn[nH]n2)cc1 [Example 9, 2-butyl-5-dimethoxymethyl-6-(4-fluorophenyl-1-yl)-3-[2'-(1H-tetrazol-5-yl)-biphenyl-4-ylmethyl]-3H-imidazo[4,5-b]pyridine]	45.2	
CCc1nc2c(C)cc(C(OC)OC)nc2n1Cc1ccc(-c2ccccc2-c2nnn[nH]2)cc1 [Example 12, 2-ethyl-5-dimethoxymethyl-7-methyl-3-[2'-(1H-tetrazol-5-yl)-biphenyl-4-ylmethyl]-3H-imidazo[4,5-b]pyridine]	44.5	
CCCCc1nc2cc(Br)c(C(OC)OC)nc2n1Cc1ccc(-c2ccccc2-c2nnn[nH]2)cc1 [Example 7, 2-butyl-5-dimethoxymethyl-6-bromo-3-[2'-(1H-tetrazol-5-yl)-biphenyl-4-ylmethyl]-3H-imidazo[4,5-b]pyridine]	78.1	
CCCCc1nc2cc(-c3ccccc3N)c(C(OC)OC)nc2n1Cc1ccc(-c2ccccc2-c2nn[nH]n2)cc1 [Example 26, 2-butyl-5-dimethoxymethyl-6-(2-aminophenyl-1-yl)-3-[2'-(1H-tetrazol-5-yl)-biphenyl-4-ylmethyl]-3H-imidazo[4,5-b]pyridine]	89.2	
CCCCc1nc2cc(-c3ccc(C)cc3)c(C(OC)OC)nc2n1Cc1ccc(-c2ccccc2-c2nn[nH]n2)cc1 [Example 16, 2-butyl-5-dimethoxymethyl-6-(4-methylphenyl-1-yl)-3-[2'-(1H-tetrazol-5-yl)-biphenyl-4-ylmethyl]-3H-imidazo[4,5-b]pyridine]	68.5	
CCCCc1nc2ccc(C(OC)OC)nc2n1Cc1ccc(-c2ccccc2-c2nnn[nH]2)cc1 [Example 10, 2-butyl-5-dimethoxymethyl-3-[2'-(1H-tetrazol-5-yl)-biphenyl-4-ylmethyl]-3H-imidazo[4,5-b]pyridine]	83.6	
CCCCc1nc2cc(-c3cccs3)c(C(OC)OC)nc2n1Cc1ccc(-c2ccccc2-c2nnn[nH]2)cc1 [Example 14, 2-butyl-5-dimethoxymethyl-6-(thiophen-2-yl)-3-[2'-(1H-tetrazol-5-yl)-biphenyl-4-ylmethyl]-3H-imidazo[4,5-b]pyridine]	72.0	
